According to US20220025036A1, “USE OF IL-1BETA BINDING ANTIBODIES” (NOVARTIS AG, priority 2018, published 2022):

Legend:
4T1 tumors [1] = assay: TIL analysis of 4T1 tumors after docetaxel and 01BSUR; assay type: in vivo, mouse
Method: (§1) Female Balb/c mice with 4T1 tumors implanted subcutaneously (s.c.) on the right flank were treated 8 and 15 days post-tumor implant initiating when the tumors reached about 100 mm^3 with the isotype antibody, docetaxel, 01BSUR, or a combination of docetaxel and 01BSUR. […] 5 days after the first dose, tumors were harvested and analyzed for changes to the infiltrating immune cell populations. This was done again at the end point of the study, 4 days after the second dose.

4T1 tumors [2] = assay: 4T1 tumors treated with 01BSUR and docetaxel, tumor burden; assay type: in vivo, mouse; settings: 4T1 s.c., treated days 8 and 15 post implant
Method: FIG. 16. Mice were implanted with 4T1 cells sc and treated with the indicated treatments on days 8 and 15 post tumor implant. There were 10 mice in each group.
as §1

LL2 = assay: Anti-IL-1β in combination with docetaxel in aggressive lung model (LL2); assay type: in vivo, mouse; settings: LL2, FIG. 15A
[3] = system: MDA-MB-231Luc2-TdTomato cells; assay: Spontaneous human breast cancer metastasis to human bone implants in NOD SCID mice; assay type: in vivo, mouse; settings: for size of bone metastases vs control group: FIG. 4a; for mice with metastasis detected in human bone implants: n=10/group, IL-1Ra 1 mg/kg daily, canakinumab 10 mg/kg s.c. every 14 days from day 7, control 7 out of 10; for tumor cells counted in whole blood: placebo 108 tumor cells/ml
Method: FIG. 4. Pharmacological blockade of IL-1β inhibits spontaneous metastasis to human bone in vivo. Female NOD-SCID mice bearing two 0.5 cm^3 pieces of human femoral bone received intra-mammary injections of MDA-MB-231Luc2-TdTomato cells. […] All animals were culled 35 days following tumour cell injection. Effects on bone metastases (a) were assessed in vivo and immediately post-mortem by luciferase imaging and confirmed ex vivo on histological sections. Data are shown as numbers of photons per second emitted 2 minutes following sub-cutaneous injection of D-luciferin. Effects on numbers of tumour cells detected in the circulation are shown in (b). *=P<0.01, **=P<0.001, ***=P<0.0001.
To model human breast cancer metastasis to human bone implants two human bone discs were implanted subcutaneously into 10-week old female NOD SCID mice (n=10/group) under isofluorane anaesthetic. Mice received an injection of 0.003 mg vetergesic and Septrin was added to the drinking water for 1 week following bone implantation. Mice were left for 4 weeks before injecting 1×10^5 MDA-MB-231 Luc2-TdTomato, MCF7 Luc2 or T47D Luc2 cells in 20% Martigel/79% PBS/1% […] into the two hind mammary fat pads. Primary tumor growth and development of metastases was monitored weekly using an IVIS […] system (Caliper Life Sciences) following sub-cutaneous injection of 30 mg/ml D-luciferin (Invitrogen). On termination of experiments mammary tumors, circulating tumor cells, serum and bone metastases were resected. RNA was processed for downstream analysis by real time PCR, and cell lysates were taken for protein analysis and whole tissue for histology as previously described (Nutter et al., 2014; Ottewell et al., 2014a).
(§2) Tumor cells, serum, and bone were subsequently resected for downstream analysis.
Whole blood was centrifuged at 10,000×g for 5 minutes and the serum removed for ELISA assays. The cell pellet was re-suspended in 5 ml of FSM lysis solution (Sigma-Aldrich, Pool, UK) to lyse red blood cells. Remaining cells were re-pelleted, washed 3× in PBS and re-suspended in a solution of PBS/10% FCS. Samples from 10 mice per group were pooled prior to isolation of TdTomato positive tumor cells using a MoFlow High performance cell sorter (Beckman Coulter, Cambridge UK) with the […] laser line from a Coherent I-90C tenable argon ion (Coherent, Santa Clara, Calif.). TdTomato fluorescence was detected by a 555LP dichroic long pass and a 580/30 nm band pass filter. Acquisition and analysis of cells was performed using Summit 4.3 software. Following sorting cells were immediately placed in RNA protect cell reagent (Ambion, Paisley, Renfrew, UK) and stored at −80° C. before RNA extraction. For counting numbers of circulating tumor cells, TdTomato fluorescence was detected using a 561 nm laser and an YL1-A filter (585/16 emission filter). Acquisition and analysis of cells was performed using Attune N×T software.

CML LSC = settings: recombinant IL-1RA; cited from earlier work
bone vasculature = assay: Bone microvasculature after IL-1 blockade in mice (CD34 staining, ELISA for endothelin 1 and VEGF); assay type: in vivo, mouse; settings: for average length of CD34+ blood vessels in trabecular bone: IL-1Ra in BALB/c nude mice, canakinumab in C57BL/6 mice; for average length of CD34+ blood vessels in trabecular bone / endothelin 1 concentration (ELISA) vs control: p<0.01; for VEGF concentration (ELISA) vs control / endothelin 1 concentration (ELISA) vs control: bone marrow; for VEGF concentration (ELISA) vs control: IL-1R antagonist p<0.01, canakinumab p<0.001
Method: FIG. 7. IL-1β in the bone microenvironment stimulates expansion of the bone metastatic niche. Effects of adding 40 pg/ml or 5 ng/ml recombinant IL-1β to MDA-MB-231 or T47D breast cancer cells is shown in (a) and effects on adding 20 pg/ml, 40 pg/ml or 5 ng/ml IL-1B on proliferation of HS5, bone marrow, or OB1, osteoblasts, are shown in b) and c) respectively. (d) IL-1 driven alterations to the bone vasculature was measured following CD34 staining in the trabecular region of the tibiae from 10-12-week old female IL-1R1 knockout mice. […] Data are shown as mean+/−SEM, *=P<0.01, **=P<0.001, ***=P<0.0001.
FIG. 8. Suppression of IL-1 signalling affects bone integrity and vasculature. […] Data shown are mean+/−SEM, *=P<0.01, **=P<0.001, ***=P<0.0001 compared with control.
as §2

interleukin 6 = settings: 50, 150, 300 mg s.c. every 3 months, dose-dependent; median follow-up 3.7 years; cited from earlier work
[4] = system: high-sensitivity C-reactive protein (hsCRP); settings: 50, 150, 300 mg s.c. every 3 months, dose-dependent; median follow-up 3.7 years; cited from earlier work
mouse IL-1β = mouse IL-1β (Mus musculus, UniProt P10749); assay: Cross-reactivity with mouse IL-1β; assay type: binding
hsCRP = assay: Gevokizumab clinical hsCRP reduction in type 2 diabetes patients; assay type: in vivo, human; settings: top dose 0.3 mg/kg (~20 mg) Q4W
From the text: FIG. 12. Clinical data after gevokizumab treatment (panel a) and its extrapolation to higher doses (panels b, c, and d). Adjusted percent change from baseline in hsCRP in patients in a). The hsCRP exposure-response relationship is shown in b) for six different hsCRP base line concentrations.

[5] = Gevokizumab clinical pharmacokinetics; assay type: in vivo, human; settings: subcutaneous administration

Chain of mouse IL-1β (P10749 118-269): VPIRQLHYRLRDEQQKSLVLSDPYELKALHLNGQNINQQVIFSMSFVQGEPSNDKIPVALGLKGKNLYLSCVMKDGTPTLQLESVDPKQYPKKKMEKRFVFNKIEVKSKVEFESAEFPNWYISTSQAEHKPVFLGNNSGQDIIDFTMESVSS

CC(=O)O[C@@]12CO[C@@H]1C[C@H](O)[C@@]1(C)C(=O)[C@H](O)C3=C(C)[C@@H](OC(=O)[C@H](O)[C@@H](NC(=O)OC(C)(C)C)c4ccccc4)C[C@@](O)([C@@H](OC(=O)c4ccccc4)[C@H]21)C3(C)C [docetaxel]
CD4+ and CD8+ T cells expressing TIM-3 vs control (4T1 tumors [1]; 4 days after a second dose): no change | granulocytic MDSC in 4T1 tumors (4T1 tumors [1]; 5 days after a single dose): decrease | monocytes in 4T1 tumors vs vehicle/isotype (4T1 tumors [1]; 5 days after a single dose): decrease | monocytic MDSC in 4T1 tumors (4T1 tumors [1]; 5 days after a single dose): decrease | neutrophils in 4T1 tumors (4T1 tumors [1]; 5 days after a single dose): decrease | tumor growth vs vehicle/isotype control (4T1 tumors [2]): enhanced | efficacy (tumor growth) (LL2): modest efficacy

IL-1Ra: recombinant IL-1 receptor antagonist (Anakinra)
size of bone metastases vs control group [3]: smaller | mice with metastasis detected in human bone implants [3]: 4 out of 10 | tumor cells counted in whole blood [3]: 3 tumor cells/ml | growth of CML LSC (CML LSC): inhibited growth | average length of CD34+ blood vessels in trabecular bone (bone vasculature): reduced | VEGF concentration (ELISA) vs control (bone vasculature): reduced concentrations | endothelin 1 concentration (ELISA) vs control (bone vasculature): reduced concentrations

canakinumab: high-affinity, fully human monoclonal antibody of the IgG1/k to interleukin-1β (SEQ ID NO:17 and 18)
size of bone metastases vs control group [3]: smaller | mice with metastasis detected in human bone implants [3]: 1 out of 10 | tumor cells counted in whole blood [3]: 3 tumor cells/ml | reductions in concentrations of interleukin 6 compared with placebo (interleukin 6): 25-43% | average length of CD34+ blood vessels in trabecular bone (bone vasculature): reduced | VEGF concentration (ELISA) vs control (bone vasculature): reduced concentrations | endothelin 1 concentration (ELISA) vs control (bone vasculature): reduced concentrations | reductions in concentrations of hsCRP compared with placebo [4]: 26-41% | cross-reactivity with mouse IL-1β (mouse IL-1β): does not cross-react

gevokizumab: high-affinity, humanized monoclonal antibody of the IgG2 isotype to interleukin-1β (SEQ ID NO:19 and 20)
reduction of hsCRP (hsCRP): up to 45% | Bioavailability [5]: about 56%
